Tests used:
Murine neutrophils = experiment: NET induction in response to nigericin in murine neutrophils; type: cell-based, mouse; parameters: dose or concentration left out as unconfirmed; settings: nigericin for 3 hours; FIG. 5E
Method: (§1) FIGS. 5A-J. Class I/II HDACs drive NET formation. • A) Quantification of extracellular DNA released by neutrophils treated, or not, with 1 μM GSK484 for 1 h and then stimulated with 1 μM PMA for 4 hours. Unstimulated, neutrophils not treated with drugs were used as a control. • B) Freshly purified human neutrophils were treated with the indicated HDAC inhibitors at different doses (0.08, 0.4, 2 and 10 μM) for 1 hour. Extracellular DNA release was assessed in the supernatant 3 hours after PMA stimulation. The dotted line represents the amount of DNA released from neutrophils treated with PMA alone. […] NETosis induction was measured as level of anti-CitH3 fluorescent signal. […] NET induction was measured as in (C). […] NETosis induction was measured as level of anti-CitH3 fluorescent signal. […] NET induction was measured as in (F). • H, I) Freshly isolated neutrophils from two different donors were treated with different doses of ricolinostat, citarinostat (10, 2, 0.4, 0.08 μM) or GSK484 (10, 5, 2 μM) for 1 h and then stimulated with 1 μM PMA. NET induction was measured as level of anti-CitH3 fluorescent signal (H) and by microscopy as number of cells positive for CitH3 signal per field of view (FOV) (I). […] NET induction was measured as level of anti-CitH3 fluorescent signal. […] Statistics were calculated using One-way ANOVA (A, E, I) and Two-way ANOVA (B, F, G, H, L). […]

[1] = test system: neutrophils that lack HDAC6; experiment: NET induction in PMA-stimulated neutrophils from HDAC6KO mice; type: cell-based, mouse; settings: ricolinostat 10, 2, 0.4, 0.08 μM, then PMA; FIG. 5G
Method: as §1

SMILES: O=C(CCCCCCNC(=O)c1cnc(N(c2ccccc2)c2ccccc2)nc1)NO [ricolinostat]
- NET induction in response to nigericin (anti-CitH3 signal) (Murine neutrophils): inhibited NET induction
- NET induction in HDAC6-lacking neutrophils [1]: remained sensitive

Source: patent US20240366594A1, “Small Molecule Inhibitors of Formation of Neutrophil-Derived Extracellular Traps (NETosis) and Uses Thereof” (The Brigham and Women's Hospital, Inc., priority 2021, published 2024)
